Test results reported in patent US8481732B2 (Incyte Corporation, priority 2009, dated 2013).

Molecular target: T1, histamine H4 receptor (Homo sapiens, UniProt Q9H3N8)
T1 construct: expressed in transfected cells; host or cells: HEK293SFM cells (membrane preparation)
Assay: H4 Membrane Binding Assay (3H-Histamine displacement)
Settings: membranes of recombinant HEK293SFM cells, 10 nM 3H-Histamine, 1.5 hr at room temperature
Procedure: Recombinant HEK293SFM cells expressing human H1, H2, H3, H4 or mouse H4 were harvested (Packard Filtermate Harvester) in ice-cold Tris-HCl, (50 mM, pH 7.5, Sigma) with protease inhibitors (Roche) and homogenized with a Polytron homogenizer. The homogenate was centrifuged for 5 minutes at 1000 g to remove nuclei and unbroken cells. The supernatant was centrifuged at 50000 g for 30 minutes, and the resulting pellet was re-suspended in ice-cold Tris-HCl (50 mM, pH 7.5). […] Nonspecific binding was determined by inclusion of 1000× unlabeled ligands. The bound radioactivity was separated by filtration through polyethyleneimine-treated GF/B filters (Perkin Elmer). The filters were washed eight times with ice-cold Tris-HCl (50 mM, pH 7.5), and radioactivity retained on the filters was measured by liquid scintillation counting. The binding data were evaluated with Prism.

| IC50 | Structure (SMILES) |
| --- | --- |
| 0.579 µM | CN1CCN(c2nc(N)nc3cc(C(=O)NCC4CC4)ccc23)CC1 [Example 25, 2-Amino-N-(cyclopropylmethyl)-4-(4-methylpiperazin-1-yl)quinazoline-7-carboxamide] |
| 0.495 µM | CNC(=O)c1ccc2c(N3CCN(C)CC3)nc(N)nc2c1 [Example 26, 2-Amino-N-methyl-4-(4-methylpiperazin-1-yl)quinazoline-7-carboxamide] |
| 0.896 µM | CN1CCN(c2nc(N)nc3cc(C(=O)Nc4cccc(Cl)c4)ccc23)CC1 [Example 27, 2-Amino-N-(3-chlorophenyl)-4-(4-methylpiperazin-1-yl)quinazoline-7-carboxamide] |
| 0.171 µM | CC(C)Cc1ccc(C(C)NC(=O)c2ccc3c(N4CCN(C)CC4)nc(N)nc3c2)cc1 (centres unmarked) [Example 28, 2-Amino-N-[1-(4-isobutylphenyl)ethyl]-4-(4-methylpiperazin-1-yl)quinazoline-7-carboxamide] |
| 0.157 µM | CC(NC(=O)c1ccc2c(N3CCN(C)CC3)nc(N)nc2c1)c1ccc(Oc2ccccc2)cc1 (centres unmarked) [Example 29, 2-Amino-4-(4-methylpiperazin-1-yl)-N-[1-(4-henoxyphenyl)ethyl]quinazoline-7-carboxamide] |
| 0.492 µM | COc1ccc([C@@H](C)NC(=O)c2ccc3c(N4CCN(C)CC4)nc(N)nc3c2)cc1 [Example 30, 2-Amino-N-[(1R)-1-(4-methoxyphenyl)ethyl]-4-(4-methylpiperazin-1-yl)quinazoline-7-carboxamide] |
| 0.355 µM | CC(NC(=O)c1ccc2c(N3CCN(C)CC3)nc(N)nc2c1)c1ccc(Br)cc1 (centres unmarked) [Example 31, 2-Amino-N-[1-(4-bromophenyl)ethyl]-4-(4-methylpiperazin-1-yl)quinazoline-7-carboxamide] |
| 0.334 µM | Cc1ccc([C@H](C)NC(=O)c2ccc3c(N4CCN(C)CC4)nc(N)nc3c2)cc1 [Example 32, 2-Amino-N-[(1S)-1-(4-methylphenyl)ethyl]-4-(4-methylpiperazin-1-yl)quinazoline-7-carboxamide] |
| 0.19 µM | CN1CCN(c2nc(N)nc3cc(C(=O)NCc4ccc(-c5ccccc5)cc4)ccc23)CC1 [Example 33] |
| 0.106 µM | CN1CCN(c2nc(N)nc3cc(C(=O)NCc4ccc(Oc5ccccc5)cc4)ccc23)CC1 [Example 34, 2-Amino-4-(4-methylpiperazin-1-yl)-N-(4-phenoxybenzyl)quinazoline-7-carboxamide] |
| 0.287 µM | CN1CCN(c2nc(N)nc3cc(C(=O)Nc4ccc(Oc5ccccc5)cc4)ccc23)CC1 [Example 35, 2-Amino-4-(4-methylpiperazin-1-yl)-N-(4-phenoxyphenyl)quinazoline-7-carboxamide] |
| 0.126 µM | Cc1ccc(CNC(=O)c2ccc3c(N4CCN(C)CC4)nc(N)nc3c2)cc1Cl [Example 36, 2-Amino-N-(3-chloro-4-methylbenzyl)-4-(4-methylpiperazin-1-yl)quinazoline-7-carboxamide] |
| 0.129 µM | CN1CCN(c2nc(N)nc3cc(C(=O)NCCc4ccccc4)ccc23)CC1 [Example 37, 2-Amino-4-(4-methylpiperazin-1-yl)-N-(2-phenylethyl)quinazoline-7-carboxamide] |
| 0.106 µM | CN1CCN(c2nc(N)nc3cc(C(=O)NCCCc4ccccc4)ccc23)CC1 [Example 38, 2-Amino-4-(4-methylpiperazin-1-yl)-N-(3-phenylpropyl)quinazoline-7-carboxamide] |
| 0.186 µM | CN1CCN(c2cc(-c3ccc4c(c3)CN(C(=O)c3cccc(Cl)c3)CC4)nc(N)n2)CC1 [Example 39, 4-[2-(3-Chlorobenzoyl)-1,2,3,4-tetrahydroisoquinolin-7-yl]-6-(4-methylpiperazin-1-yl)pyrimidin-2-amine] |
| 0.016 µM | CN1CCN(c2cc(-c3ccc4c(c3)CN(C(=O)Nc3cccc(Cl)c3F)CC4)nc(N)n2)CC1 [Example 40, 7-[2-Amino-6-(4-methylpiperazin-1-yl)pyrimidin-4-yl]-N-(3-chloro-2-fluorophenyl)-3,4-dihydroisoquinoline-2(1H)-carboxamide] |
| 0.028 µM | CN1CCN(c2cc(-c3ccc4c(c3)CN(C(=O)CC3CCCC3)CC4)nc(N)n2)CC1 [Example 41, 4-[2-(Cyclopentylacetyl)-1,2,3,4-tetrahydroisoquinolin-7-yl]-6-(4-methylpiperazin-1-yl)pyrimidin-2-amine] |
| 0.103 µM | Cc1cccnc1N1CCC(NC(=O)N2CCc3ccc(-c4cc(N5CCN(C)CC5)nc(N)n4)cc3C2)CC1 [Example 42, 7-[2-Amino-6-(4-methylpiperazin-1-yl)pyrimidin-4-yl]-N-[1-(3-methylpyridin-2-yl)piperidin-4-yl]-3,4-dihydroisoquinoline-2(1H)-carboxamide] |
| 0.058 µM | CN1CCN(c2cc(-c3ccc4c(c3)CN(C(=O)Nc3ccc(C#N)cn3)CC4)nc(N)n2)CC1 [Example 43, 7-[2-Amino-6-(4-methylpiperazin-1-yl)pyrimidin-4-yl]-N-(5-cyanopyridin-2-yl)-3,4-dihydroisoquinoline-2(1H)-carboxamide] |
| 0.118 µM | CN1CCN(c2cc(-c3ccc4c(c3)CN(C(=O)Nc3ccc(C#N)nc3)CC4)nc(N)n2)CC1 [Example 44, 7-[2-Amino-6-(4-methylpiperazin-1-yl)pyrimidin-4-yl]-N-(6-cyanopyridin-3-yl)-3,4-dihydroisoquinoline-2(1H)-carboxamide] |
| 0.06 µM | COC(=O)c1ccc(NC(=O)N2CCc3ccc(-c4cc(N5CCN(C)CC5)nc(N)n4)cc3C2)nc1 [Example 45, Methyl 6-({[7-[2-amino-6-(4-methylpiperazin-1-yl)pyrimidin-4-yl]-3,4-dihydroisoquinolin-2(1H)-yl]carbonyl}amino)nicotinate] |
| 0.07 µM | COc1ccc(NC(=O)N2CCc3ccc(-c4cc(N5CCN(C)CC5)nc(N)n4)cc3C2)cn1 [Example 46, 7-[2-Amino-6-(4-methylpiperazin-1-yl)pyrimidin-4-yl]-N-(6-methoxypyridin-3-yl)-3,4-dihydroisoquinoline-2(1H)-carboxamide] |
| 0.027 µM | CN1CCN(c2cc(-c3ccc4c(c3)CN(C(=O)NC3(C)CCCCC3)CC4)nc(N)n2)CC1 [Example 47, 7-[2-Amino-6-(4-methylpiperazin-1-yl)pyrimidin-4-yl]-N-(1-methylcyclohexyl)-3,4-dihydroisoquinoline-2(1H)-carboxamide] |
| 0.099 µM | CN1CCN(c2cc(-c3ccc4c(c3)CN(C(=O)Nc3nc(-c5ccc(Cl)cc5)cs3)CC4)nc(N)n2)CC1 [Example 48, 7-[2-Amino-6-(4-methylpiperazin-1-yl)pyrimidin-4-yl]-N-[4-(4-chlorophenyl)-1,3-thiazol-2-yl]-3,4-dihydroisoquinoline-2(1H)-carboxamide] |
| 0.058 µM | CN1CCN(c2cc(-c3ccc4c(c3)CN(C(=O)Nc3nc(C(F)(F)F)cs3)CC4)nc(N)n2)CC1 [Example 50, 7-[2-Amino-6-(4-methylpiperazin-1-yl)pyrimidin-4-yl]-N-[4-(trifluoromethyl)-1,3-thiazol-2-yl]-3,4-dihydroisoquinoline-2(1H)-carboxamide] |
| 0.063 µM | CC(NC(=O)N1CCc2ccc(-c3cc(N4CCN(C)CC4)nc(N)n3)cc2C1)c1ccccc1 (centres unmarked) [Example 51, 7-[2-Amino-6-(4-methylpiperazin-1-yl)pyrimidin-4-yl]-N-(1-phenylethyl)-3,4-dihydroisoquinoline-2(1H)-carboxamide] |
